For assay [1], the system named is Influenza A (H1N1) virus PR8 strain. Briefly: Mouse pneumonia model infected with influenza A (H1N1) virus PR8 strain (lung index). Format: in vivo, ICR mice. Here is the method:
(§1) ICR mice were taken and randomly divided by weight class: normal control group, model control group, oseltamivir control group, compound 4, compound F4, compound F5, compound 5, and compound 7 according to their weight class, and each drug was given in two dosage groups (10 mice in each group). Except for the normal control group, mice were slightly anesthetized with ether and infected with 15 LD50 H1N1 influenza virus liquid (FM1/PR8 strain) by nasal drops (30 μl per each animal). The administration was started on the day of infection at 0.2 ml/10 g by gavage each time once a day for 4 days, and the normal control and model control groups were gavaged with distilled water under the same conditions. The mice were weighed and dissected on Day 5, and lung was weighed to calculate lung index and lung index inhibition. The results were statistically processed using t-test for comparison between groups.
(§2) ICR mice were taken and randomly divided into 9 groups according to the body weight: a normal control group, model control group, oseltamivir control group, and two dosage groups of Compound 9, Compound 12 and Compound 2, 10 mice in each group. Except the normal control group, mice were slightly anesthetized with ether and infected with 15 LD50 H1N1/PR8 influenza virus liquid by nasal drops at 30 μl per mouse. The administration was started on the day of infection, at 0.2 ml/10 g each time by gavage once a day for 4 days, and the normal control and model control groups were gavaged with distilled water under the same conditions. The mice were weighed and dissected on Day 5, and lungs were weighed to calculate lung index and lung index inhibition. The results were statistically processed using t-test for comparison between groups.

Assay [2] relates to Influenza A (H1N1) virus FM1 strain. Briefly: Mouse pneumonia model infected with influenza A (H1N1) virus FM1 strain (lung index). Format: in vivo, ICR mice. How it is done: ICR mice were taken and randomly divided into: normal control group, model control group, ribavirin control group, compound 4, compound F1, compound F2, and compound F3 according to their weight class, and each drug was given in two dosage groups (10 mice in each group). Except for the normal control group, mice were slightly anesthetized with ether and infected with 15 LD50 H1N1 influenza virus liquid FM1 strain by nasal drops (30 μl per animal). The administration was started on the day of infection at 0.2 ml/10 g by gavage each time once a day for 4 days, and the normal control and model control groups were gavaged with distilled water under the same conditions. The mice were weighed and dissected on Day 5, and the lung was weighed to calculate lung index and lung index inhibition. The results were statistically processed using t-test for comparison between groups.
as §1, §2

The test system of assay [3] is Human Coronavirus 229E (HCoV-229E). Briefly: animal or person. Format: in vivo. The conditions noted are these: for inhibition in vivo at 40 mg/kg/day / inhibition in vivo at 50 mg/kg/day / inhibition in vivo at 7.5 mg/kg/day / inhibition in vivo at 15 mg/kg/day / inhibition in vivo at 30 mg/kg/day: Human coronavirus 229E, in Mus musculus, po, 96 h, read-out: inhibition rate (%).

The test system of assay [4] is Sendai strain of parainfluenza virus. Format: in vivo. The following applies: Table 11 (Example 24).
Setting [5] is: Table 12 (Example 25), 27.5 mg/kg/d gavage for 4 days.
Where [6] appears, read: Table 13 (Example 25), 27.5 mg/kg/d gavage for 4 days.
Setting [7] is: Table 4 (Example 15), 40 mg/kg/d gavage for 4 days.
Where [8] appears, read: Table 4 (Example 15), 50 mg/kg/d gavage for 4 days.
Where [9] appears, read: Table 10 (Example 23), 7.5 mg/kg/d gavage for 4 days.
[10] abbreviates: Influenza A virus, H1N1, po, 96 h, Table 1 (Example 13), 25 mg/kg gavage once a day for 4 days, read-out: inhibition rate (%).
Setting [11] is: Influenza A virus, H1N1, po, 96 h, Table 1 (Example 13), 50 mg/kg gavage once a day for 4 days, read-out: inhibition rate (%).
The mark [12] stands for this setting: Table 1 (Example 13), 25 mg/kg gavage once a day for 4 days.
The mark [13] stands for this setting: Table 1 (Example 13), 50 mg/kg gavage once a day for 4 days.
The mark [14] stands for this setting: Table 5 (Example 16), 7.5 mg/kg/d gavage for 4 days.
[15] abbreviates: Table 5 (Example 16), 15 mg/kg/d gavage for 4 days.
Where [16] appears, read: Table 5 (Example 16), 30 mg/kg/d gavage for 4 days.
The mark [17] stands for this setting: Influenza A virus, H1N1, po, 96 h, Table 2 (Example 14), 20 mg/kg gavage once a day for 4 days, read-out: inhibition rate (%).
[18] abbreviates: Influenza A virus, H1N1, po, 96 h, Table 2 (Example 14), 40 mg/kg gavage once a day for 4 days, read-out: inhibition rate (%).
Where [19] appears, read: Table 2 (Example 14), 20 mg/kg gavage once a day for 4 days.
Setting [20] is: Table 2 (Example 14), 40 mg/kg gavage once a day for 4 days.

Where two headings read alike, the source gives them in different places.

Turning to `CCOC(=O)C1=C[C@@H](OC(CC)CC)[C@H](NC(C)=O)[C@@H](N)C1` [Oseltamivir, Oseltamivir phosphate, reference compound], the “inhibition rate %” value in assay [1] (Table 3 (Example 14), 27.5 mg/kg gavage once a day for 4 days) was determined as 58.89%; in assay [1] (setting [5]) it was 88.97%; in assay [2] (setting [6]), 64.57%. Besides, the lung index is recorded as 0.71 ± 0.069 Lung weight * 100/body weight in assay [1] (setting [5]); 0.86 ± 0.21 in assay [2] (Table 2 (Example 14), 27.5 mg/kg gavage once a day for 4 days); 0.74 ± 0.065 Lung weight * 100/body weight in assay [2] (setting [6]). For the same molecule, the inhibition in vivo at 27.5 mg/kg in assay [2] (Influenza A virus, H1N1, po, 96 h, Table 2 (Example 14), 27.5 mg/kg gavage once a day for 4 days, read-out: inhibition rate (%)) worked out at 62.1%.

For `O=c1c(-c2ccccc2)coc2cc(O)ccc12` [Compound F1, reference compound], the inhibition in vivo at 40 mg/kg/day in assay [3] (setting [7]) worked out at 15.9%. Also, the inhibition in vivo at 50 mg/kg/day in assay [3] (setting [8]) was 20.4%. In assay [3] (setting [9]), the inhibition in vivo at 7.5 mg/kg/day was determined as 27.2%. Besides, the lung index in assay [3] (setting [7]) is reported as 0.81 ± 0.06 g lung weight × 100/g body weight; in assay [3] (setting [8]), 0.80 ± 0.05 g lung weight × 100/g body weight; in assay [3] (setting [9]), 0.85 ± 0.07 g lung weight × 100/g body weight; in assay [2] (setting [12]), 1.17 ± 0.09; in assay [2] (setting [13]), 1.06 ± 0.13. The inhibition in vivo at 25 mg/kg in assay [2] (setting [10]) worked out at 11.1%. The inhibition in vivo at 50 mg/kg in assay [2] (setting [11]) worked out at 30%.

For `CC1(NCCOc2ccc3c(=O)c(-c4ccccc4)coc3c2)CC1` [Compound 5], the inhibition in vivo at 7.5 mg/kg/day in assay [3] (setting [14]) was 22.7%. Moreover, the inhibition in vivo at 15 mg/kg/day in assay [3] (setting [15]) was -17%. Also, the inhibition in vivo at 30 mg/kg/day in assay [3] (setting [16]) is -7%. Moreover, the lung index in assay [3] (setting [14]) is given as 0.76 ± 0.08 g lung weight × 100/g body weight; in assay [3] (setting [15]), 0.80 ± 0.10 g lung weight × 100/g body weight; in assay [3] (setting [16]), 0.79 ± 0.08 g lung weight × 100/g body weight; in assay [2] (setting [19]), 1.20 ± 0.16; in assay [2] (setting [20]), 1.07 ± 0.21. The inhibition in vivo at 20 mg/kg in assay [2] (setting [17]) was -25.1%. Further, the inhibition in vivo at 40 mg/kg in assay [2] (setting [18]) is 8.44%.

As to `O=c1c(-c2ccccc2)coc2cc(OCCNC3CCCCC3)ccc12` [Compound 7], in assay [3] (setting [14]), the inhibition in vivo at 7.5 mg/kg/day is -17%. Moreover, the inhibition in vivo at 15 mg/kg/day in assay [3] (setting [15]) came out at 41.6%. The inhibition in vivo at 30 mg/kg/day in assay [3] (setting [16]) was found to be 15.8%. Moreover, the lung index in assay [3] (setting [14]) was 0.80 ± 0.09 g lung weight × 100/g body weight; in assay [3] (setting [15]), 0.74 ± 0.06 g lung weight × 100/g body weight; in assay [3] (setting [16]) it was 0.76 ± 0.07 g lung weight × 100/g body weight; in assay [2] (setting [19]), 1.02 ± 0.12; in assay [2] (setting [20]), 0.98 ± 0.18. In addition, the inhibition in vivo at 20 mg/kg in assay [2] (setting [17]) is 21%. The inhibition in vivo at 40 mg/kg in assay [2] (setting [18]) was determined as 30.2%.

As for `COCCOc1ccc2c(=O)c(-c3ccccc3)coc2c1` [Compound F4, reference compound], in assay [3] (setting [14]), the inhibition in vivo at 7.5 mg/kg/day was -86%. For the same molecule, the inhibition in vivo at 15 mg/kg/day in assay [3] (setting [15]) was -64%. In assay [3] (setting [16]), the inhibition in vivo at 30 mg/kg/day amounted to 37.2%. Moreover, the lung index in assay [3] (setting [14]) is recorded as 0.86 ± 0.07 g lung weight × 100/g body weight; in assay [3] (setting [15]), 0.84 ± 0.07 g lung weight × 100/g body weight; in assay [3] (setting [16]), 0.75 ± 0.13 g lung weight × 100/g body weight; in assay [2] (setting [19]), 1.14 ± 0.12; in assay [2] (setting [20]) it was 1.22 ± 0.13. Further, in assay [2] (setting [17]), the inhibition in vivo at 20 mg/kg is -9.25%. Besides, in assay [2] (setting [18]), the inhibition in vivo at 40 mg/kg was -29.3%.

On to `CCC(=O)N(CCOc1ccc2c(=O)c(-c3ccccc3)coc2c1)C1CC1` [Compound 11], for which, in assay [3] (setting [9]), the inhibition in vivo at 7.5 mg/kg/day was 14.1% and the lung index is listed as 0.87 ± 0.08 g lung weight × 100/g body weight. For the same molecule, in assay [4] (7.5 mg/kg/d gavage for 4 days), the inhibition rate % is reported as −20.73% and the lung index was 0.87 ± 0.04 Lung weight * 100/body weight. In addition, in assay [4] (15 mg/kg/d gavage for 4 days), the inhibition rate % was determined as 6.19% and the lung index was 0.83 ± 0.05 Lung weight * 100/body weight.

With `COc1ccc(-c2coc3cc(O)ccc3c2=O)cc1O` [Compound F3, reference compound], the inhibition in vivo at 40 mg/kg/day in assay [3] (setting [7]) was 7.71%. The inhibition in vivo at 50 mg/kg/day in assay [3] (setting [8]) came out at 1.81%. The lung index was 0.83 ± 0.09 g lung weight × 100/g body weight in assay [3] (setting [7]), 0.84 ± 0.06 g lung weight × 100/g body weight in assay [3] (setting [8]), 1.19 ± 0.31 in assay [2] (setting [12]) and 1.31 ± 0.22 in assay [2] (setting [13]). In assay [2] (setting [10]), the inhibition in vivo at 25 mg/kg turned out to be 4.07%. In assay [2] (setting [11]), the inhibition in vivo at 50 mg/kg was -18.7%.

`CC(=O)NCCOc1ccc2c(=O)c(-c3ccccc3)coc2c1` [Compound F5, reference compound]: the inhibition in vivo at 7.5 mg/kg/day in assay [3] (setting [14]) is -41%. Further, the inhibition in vivo at 15 mg/kg/day in assay [3] (setting [15]) is -72%. The inhibition in vivo at 30 mg/kg/day in assay [3] (setting [16]) came to 17%. Besides, the lung index is given as 0.82 ± 0.08 g lung weight × 100/g body weight in assay [3] (setting [14]); 0.85 ± 0.08 g lung weight × 100/g body weight in assay [3] (setting [15]); 0.77 ± 0.11 g lung weight × 100/g body weight in assay [3] (setting [16]); 1.22 ± 0.11 in assay [2] (setting [19]); 1.10 ± 0.24 in assay [2] (setting [20]). The inhibition in vivo at 20 mg/kg in assay [2] (setting [17]) is -31.3%. In addition, the inhibition in vivo at 40 mg/kg in assay [2] (setting [18]) worked out at 0.35%.

Turning to `CC(=O)N(CCOc1ccc2c(=O)c(-c3ccccc3)coc2c1)C1CC1` [Compound 10], in assay [3] (setting [9]), the inhibition in vivo at 7.5 mg/kg/day came out at 25.6% and the lung index is given as 0.85 ± 0.06 g lung weight × 100/g body weight. In assay [4] (7.5 mg/kg/d gavage for 4 days), the inhibition rate % is on record as 7.43% and the lung index is listed as 0.83 ± 0.06 Lung weight * 100/body weight. In assay [4] (15 mg/kg/d gavage for 4 days), the inhibition rate % is −16.30% and the lung index is on record as 0.86 ± 0.05 Lung weight * 100/body weight.

Turning to `COc1ccc(-c2coc3cc(O[C@@H]4OC(CO)[C@@H](O)C(O)C4O)ccc3c2=O)cc1O` (stereo partly shown) [Compound F2, reference compound], the inhibition in vivo at 40 mg/kg/day in assay [3] (setting [7]) was 1.45%. Further, the inhibition in vivo at 50 mg/kg/day in assay [3] (setting [8]) was 10.6%. For the same molecule, the lung index in assay [3] (setting [7]) is given as 0.84 ± 0.05 g lung weight × 100/g body weight; in assay [3] (setting [8]) it was 0.82 ± 0.06 g lung weight × 100/g body weight; in assay [2] (setting [12]) it was 1.13 ± 0.18; in assay [2] (setting [13]), 1.12 ± 0.17. Further, in assay [2] (setting [10]), the inhibition in vivo at 25 mg/kg was determined as 17.1%. The inhibition in vivo at 50 mg/kg in assay [2] (setting [11]) worked out at 19.1%.

Values taken from US20250154121A1, “CYCLIC(ALKYL)(AMINO)ALKOXY-SUBSTITUTED ARYL-PYRONE COMPOUND AND USE THEREOF” (priority 2022, published 2025).
